# Measurements reported in US20260183432A1, “IMAGING AGENTS FOR DETECTING CD206+ MACROPHAGES” (THE GENERAL HOSPITAL CORPORATION, priority 2022, published 2026).
# pIC50: −log10 of the molar value. Entries after “also recorded” stand apart in the source; their conditions may differ.
# Columns and labels:
# CD206 = biological target: T1, CD206 (Homo sapiens, UniProt P22897); settings: read-out: binding affinity to CD206 (IC50); cited from earlier work
# T1 sequence (P22897 19-1456): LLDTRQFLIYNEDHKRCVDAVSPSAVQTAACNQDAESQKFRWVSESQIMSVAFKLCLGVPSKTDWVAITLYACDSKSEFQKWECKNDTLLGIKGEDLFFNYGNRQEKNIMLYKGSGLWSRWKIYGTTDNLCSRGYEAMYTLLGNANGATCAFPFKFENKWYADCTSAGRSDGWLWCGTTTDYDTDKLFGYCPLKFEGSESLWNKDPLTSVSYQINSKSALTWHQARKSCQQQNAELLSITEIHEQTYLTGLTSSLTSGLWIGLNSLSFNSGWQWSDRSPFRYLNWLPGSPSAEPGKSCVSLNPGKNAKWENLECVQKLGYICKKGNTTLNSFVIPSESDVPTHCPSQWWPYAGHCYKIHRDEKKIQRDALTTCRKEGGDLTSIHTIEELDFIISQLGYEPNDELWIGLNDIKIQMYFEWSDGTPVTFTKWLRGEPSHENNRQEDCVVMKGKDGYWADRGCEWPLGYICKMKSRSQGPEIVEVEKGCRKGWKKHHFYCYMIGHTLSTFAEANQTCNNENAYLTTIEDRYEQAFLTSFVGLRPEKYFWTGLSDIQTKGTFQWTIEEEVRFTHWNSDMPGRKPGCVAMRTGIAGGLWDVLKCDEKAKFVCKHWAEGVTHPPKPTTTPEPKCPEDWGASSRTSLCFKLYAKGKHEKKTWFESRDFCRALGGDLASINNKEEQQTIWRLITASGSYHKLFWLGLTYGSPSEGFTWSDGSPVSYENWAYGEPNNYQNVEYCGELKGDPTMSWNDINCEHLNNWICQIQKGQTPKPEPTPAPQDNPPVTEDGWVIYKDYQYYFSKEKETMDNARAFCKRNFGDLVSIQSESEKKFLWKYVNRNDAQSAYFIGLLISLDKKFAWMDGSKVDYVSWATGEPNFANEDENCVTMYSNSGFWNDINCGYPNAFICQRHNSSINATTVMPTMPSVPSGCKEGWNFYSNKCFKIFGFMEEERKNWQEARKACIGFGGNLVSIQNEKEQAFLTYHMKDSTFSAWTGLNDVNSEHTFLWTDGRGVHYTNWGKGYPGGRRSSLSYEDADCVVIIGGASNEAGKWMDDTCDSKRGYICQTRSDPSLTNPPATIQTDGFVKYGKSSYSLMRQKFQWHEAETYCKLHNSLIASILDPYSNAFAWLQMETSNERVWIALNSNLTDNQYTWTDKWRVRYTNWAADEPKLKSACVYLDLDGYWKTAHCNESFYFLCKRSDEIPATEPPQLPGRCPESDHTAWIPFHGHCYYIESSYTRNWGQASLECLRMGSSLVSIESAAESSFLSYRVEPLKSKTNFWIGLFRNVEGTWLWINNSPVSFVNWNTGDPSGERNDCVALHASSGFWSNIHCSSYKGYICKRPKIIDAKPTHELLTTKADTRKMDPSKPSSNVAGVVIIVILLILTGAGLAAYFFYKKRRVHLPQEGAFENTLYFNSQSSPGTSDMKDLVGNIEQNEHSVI
# CD206+ macrophages = experiment: MR imaging in mouse model of cutaneous wound healing; type: in vivo; settings: for contrast-to-noise ratio (CNR) time course: wildtype mice, day 7 after wound induction
# Description: Eight-to nine-week-old C57BL/6J female mice were used for MRI of wound healing and glioma (Jackson Laboratory, ME). The generation of wound healing and glioma is described in Examples 14 and 15, respectively. The mice with subcutaneous wounds were imaged on days 1, 4, and 7 longitudinally or on day 7. Mice with glioma were imaged on the third week. All the mice were imaged pre- and at 0, 15, 30, 45 and 60 min after 0.3 mmol/kg of Mann2-DTPA-Gd or MannGdFish was administered intravenously via a tail vein using serial T1 rapid acquisition with relaxation enhancement (RARE) sequence (TR: 935.77 ms, TE: 13.59 ms, averages: 12, rare factor: 4, 256×256×48 matrix size, 0.156×0.156×1 mm^3 voxel size) with chemical fat suppression using a Hermitian pulse shape with an 8.253 ms pulse and 701.19 Hz bandwidth 3.5 ppm down from the water peak and respiratory gating on a 4.7 T small animal MR scanner (Bruker, Cambridge, MA) with a 3 cm quadrature volume coil (Rapid MR International, Germany). Regions of interest (ROIs) were drawn and the contrast-to-noise ratios (CNRs, CNRpre-contrast subtracted) were calculated by a radiologist with over 20 years of experience blinded to the identity of the imaging agent used and the strain of the mice (n=3 per group).
# Wound healing procedure. Seven-to ten-week-old C57BL/6J female mice (The Jackson Laboratories, ME) and mannose-receptor deficient mice were used in this study. A circular outline on the back of a mouse was made with a 4 mm biopsy punch (Kai Medical, Japan) under anesthesia using isoflurane. Then a full-thickness excisional wound was generated that extended through the subcutaneous tissue. A silicone splint was glued over the wound, anchored with 6-0 nylon sutures, and covered with a transparent occlusive dressing (OpSite). Xylazine/norepinephrine (100 μL) were intraperitoneally injected twice a day for two days and the mice were monitored daily.
# [1] = test system: M1 and M2 macrophages differentiated from Raw 264.7 cells; experiment: fluorescence imaging of M1- and M2-differentiated macrophages; type: cell-based; settings: incubated at 37° C.
# Description: M1- and M2-differentiated macrophages were incubated with 1/1000 dilution of MR2-cy5 stock solution (10 mM in DMSO) for 1 h at 37° C. and counter-stained with DAPI (4′,6-diamidino-2-phenylindole, Invitrogen). The cells were washed with PBS and fluorescence imaging was captured with a digital microscope (Nikon Eclipse TE2000-U).
# M1 and M2 polarized differentiation. Raw 264.7 cells (Passage 8 from the cell core of center for Systems Biology at Massachusetts General Hospital, Boston) in 10 mL petri dishes were cultured with Dulbecco's modified eagle medium with high glucose (DMEM, Thermo Fisher Scientific, NY, USA) containing 10% of fetal bovine serum (FBS, Sigma-Aldrich, MO, USA) and 0.5% streptomycin/penicillin (Cellgro) until reaching 80% of confluency. Then differentiating media containing IFN-gamma (100 ng/ml the above medium) for M1 polarization and IL-4 (100 ng/mL) for M2 polarization were added to the dishes, respectively. After 24 h, the M1 and M2 polarized macrophages were ready for the following experiments.
# [2] = in vitro relaxivity (r1), Bruker Minispect; type: physicochemical
# Description: Relaxation time (T1) of Mann2-DTPA-Gd/MannGdFish at concentrations of 0.1, 0.2, 0.3, 0.5, 0.6, 0.75, and 1 mM in PBS was measured on the Bruker Minispect (Bruker Analytics, MA) at 0.47 T (20 MHz) at 40° C. The slope value of the linear function of 1/T1 (s) to their corresponding concentrations is defined as the relaxivity (n=3 for each concentration).
# [3] = biodistribution and retention by ICP-MS in mice with cutaneous wound; type: in vivo, mouse
# Description: (§1) 6-10 weeks old of C57BL/6J mice were administered with MannGdFish intravenously 24 h after the wound injury. At 3 h and on day 7 after induction, mice were sacrificed and major organs including wound skins and the counter skins were harvested (n=3 for each time point). Blood samples were collected before and at different time points after the administration of MannGdFish (n=6) and centrifuged to obtain the plasma. The samples were weighed, treated with nitric acid, and subjected to inductively coupled plasma mass spectrometry (ICP-MS) to determine the amount of gadolinium as described in Example 6.
# [4] = blood half-life by ICP-MS; type: in vivo, mouse; settings: two-phase exponential model
# Description: as §1
# RAW 264.7 cells = experiment: cytotoxicity, MTT assay; type: cell-based; settings: n=3
# Description: The cytotoxicity of MannGdFish was evaluated using RAW264.7 cells (Passage 8 from the cell core of the Center for Systems Biology at Massachusetts General Hospital, Boston) with an MTT assay as described by Wang et. al (J Med Chem 64, 5874-5885 (2021)) (n=3).
# [5] = PET imaging of [68]Ga-MannGaFish; settings: in vivo
smiles,measurement,setting,value
O=C[C@@H](O)[C@@H](O)[C@H](O)[C@H](O)CO [D-mannose],pIC50,CD206,2.26
"O=C([O-])CN1CCN(CC(=O)[O-])CCN(CC(=O)O)CCN(CC(=O)[O-])CC1.[Gd+3] [DOTA-Gd, reference compound]",contrast-to-noise ratio (CNR) time course,CD206+ macrophages,decreased significantly 15 min post-injection; also recorded: decreased rapidly after peaking at 15 min post-injection
CC[N+]1=C(/C=C/C=C/C=C2/N(CCCCCC(=O)NC3C(O)OC(CO)C(O)C3O)c3ccc(S(=O)(=O)O)cc3C2(C)C)C(C)(C)c2cc(S(=O)(=O)[O-])ccc21 (stereo not shown) [MR1-cy5],"fluorescence signal, M2 versus M1 macrophages (specificity)",[1],low specificity to M2 macrophages
CC[N+]1=C(/C=C/C=C/C=C2/N(CCCCCC(=O)NC(COC3OC(CO)C(O)C(O)C3O)COC3OC(CO)C(O)C(O)C3O)c3ccc(S(=O)(=O)O)cc3C2(C)C)C(C)(C)c2cc(S(=O)(=O)[O-])ccc21 (stereo not shown) [MR2-cy5],"fluorescence signal, M2 versus M1 macrophages (specificity)",[1],much higher signal from M2 macrophages than that from M1 macrophages; also recorded: much higher signal in M2 macrophages compared to that in M1 macrophages
O=C([O-])CN1CCN(CC(=O)[O-])CCN(C(CCC(=O)NC(COC2OC(CO)C(O)C(O)C2O)COC2OC(CO)C(O)C(O)C2O)C(=O)[O-])CCN(CC(=O)O)CC1.[Gd+3] (stereo not shown) [MannGdFish],MR signal compared to DOTA-Gd,"CD206+ macrophages; 60 min, wound healing day 7",much higher in comparison with that of DOTA-Gd; also recorded: much higher compared to that of DOTA-Gd
same,contrast-to-noise ratio (CNR) time course,CD206+ macrophages,slow decrease of CNR
same,CNR compared to Mann2-DTPA-Gd,"CD206+ macrophages; wildtype wound healing mice, day 7",slightly higher CNRs and similar dynamic profile as that of Mann2-DTPA-Gd; also recorded: slightly higher compared to that of Mann2-DTPA-Gd
same,relaxivity (r1),[2],5.2 mmol⁻¹ s⁻¹
same,gadolinium in wound versus normal skin,"[3]; 3 h after administration, wound 24 h post-injury",low and not significantly different compared to that in the normal skin
same,major organs containing gadolinium,[3]; 3 h and day 7,liver and spleen being the major organs containing gadolinium
same,accumulation or retention of Gd in the body,"[3]; 3 h and day 7, ICP-MS",< 0.5 nmol Gd per gram tissue
same,gadolinium in wound versus normal skin,[3]; day 7,higher in the wound than that in the normal skin
same,"blood half-life, fast phase",[4],0.3 min
same,"blood half-life, slow phase",[4],6.1 min
same,cytotoxicity: concentration up to which no cytotoxic effect was observed,RAW 264.7 cells,> 5 mM
O=C([O-])CN1CCN(CC(=O)[O-])CCN(C(CCC(=O)NC(COC2OC(CO)C(O)C(O)C2O)COC2OC(CO)C(O)C(O)C2O)C(=O)[O-])CCN(CC(=O)O)CC1.[68Ga+3] (stereo not shown) [[68]Ga-MannGaFish],uptake in organs on PET imaging,[5],low uptakes in the lungs and heart
